Test results published in publication PMC7897990, “TriTOX: A novel Trichomonas vaginalis assay platform for high-throughput screening of compound libraries” (International Journal for Parasitology: Drugs and Drug …, 2021).
Like-named read-outs stand apart in the source and are kept apart here. Starred links: 1 amine or outer side, 2 acyl side, 3 side chain; linkers in the order of their positions; H or OH if unused. Positions of bridges follow the written chain, without caps; N, C: chain ends. Non-standard residues stand in square brackets, D forms with d. Residues, ends and D or L forms follow the SMILES beside them. hTyr(3S-OH,4S-OH,3'-OSO3H) = N[C@H](C(=O)O)[C@H](O)[C@@H](O)c1ccc(O)c(OS(=O)(=O)O)c1; Orn(4R-OH,5R-OH) = O=C([C@H](C[C@@H](O)[C@@H](O)N[*:3])N[*:1])[*:2]; Pro(3S-OH,4S-Me) = C[C@H]1CN[C@H](C(=O)O)[C@H]1O; Gln(3R-OH) = NC(=O)C[C@@H](O)[C@H](N)C(=O)O; Hyp = O=C(O)[C@@H]1C[C@@H](O)CN1

Experiments:
[1] = tested on: Trichomonas vaginalis G3 trophozoites; conditions: for T.vaginalis_Absorbance_Rep1: replicate 1, raw absorbance; for T.vaginalis_Absorbance_Rep2: replicate 2, raw absorbance
[2] = tested on: nontumorigenic neonatal foreskin fibroblast (NFF) cell line
[3] = parasite screen at 1 µg/mL, replicate 1
[4] = parasite screen at 1 µg/mL, replicate 2
[5] = NFF_NS1 screen at 5 µg/mL, NFF cells
[6] = HTS replicate 1, parasite screen 1 µg/mL
[7] = HTS replicate 2, parasite screen 1 µg/mL
[8] = NFF fibroblasts, single concentration 5 µg/mL
[9] = HTS, parasite screen at 1 µg/mL, replicate 1
[10] = HTS, parasite screen at 1 µg/mL
[11] = HTS, parasite screen at 1 µg/mL, replicate 2
[12] = replicate 1, parasite screen at 1 µg/mL
[13] = replicate 2, parasite screen at 1 µg/mL

With `CC[C@H]1C[C@@H]2CC[C@@H](O2)[C@@H](C)C(=O)O[C@H](CC)C[C@H]2CC[C@H](O2)[C@H](C)C(=O)O[C@@H](CC)C[C@@H]2CC[C@@H](O2)[C@@H](C)C(=O)O[C@H](CC)C[C@H]2CC[C@H](O2)[C@H](C)C(=O)O1` [BIA-T1287] the T.vaginalis_%inb_Rep1 [1, 3] was 8.97%, the T.vaginalis_%inb_Rep2 [1, 4] was 15.05% and the NFF_Activity [2, 5] was “I (otherwise these were reported as inactive (I))”.
In the case of Nargenicin, the T.vaginalis_%inb_Rep1 [1, 6] is reported as 10.70%, the T.vaginalis_%inb_Rep2 [1, 7] is reported as 13.02% and the NFF_Activity [2, 8] is reported as “I (otherwise these were reported as inactive (I))”.
`CCCCCCCCCCCCCC(=O)N[C@H]1CCOC1=O` [BIA-T1499] was tested, and the T.vaginalis_%inb_Rep1 [1, 3] was 6.40%, the T.vaginalis_%inb_Rep2 [1, 4] was 13.16% and the NFF_Activity [2, 5] was “I (otherwise these were reported as inactive (I))”.
`CC[C@H]1OC(=O)[C@H](C)[C@@H](O[C@H]2C[C@@](C)(OC)[C@@H](O)[C@H](C)O2)[C@H](C)[C@@H](O[C@@H]2O[C@H](C)C[C@H]([N+](C)(C)[O-])[C@H]2O)[C@](C)(O)C[C@@H](C)C(=O)[C@H](C)[C@@H](O)[C@]1(C)O` [Erythromycin A N-oxide] gave a T.vaginalis_%inb_Rep1 [1, 9] of 6.03%, a T.vaginalis_Absorbance_Rep1 [1, 10] of 0.821 and a T.vaginalis_%inb_Rep2 [1, 11] of 9.83%. For the same compound, the T.vaginalis_Absorbance_Rep2 [1, 10] was 0.756 and the NFF_Activity ([2]; NFF_NS1 screen at 5 µg/mL) was “I (otherwise these were reported as inactive (I))”.
Eprinomectin showed a T.vaginalis_%inb_Rep1 [1, 9] of 12.49%, a T.vaginalis_Absorbance_Rep1 [1, 10] of 0.941 and a T.vaginalis_%inb_Rep2 [1, 11] of 15.33%. For the same compound, the T.vaginalis_Absorbance_Rep2 [1, 10] was 0.832 and the NFF_Activity ([2]; NFF_NS1 screen at 5 µg/mL) was “I (otherwise these were reported as inactive (I))”.
For `CCC(=O)[C@@H](C)[C@@H](O)[C@H](C)C[C@@H](C)[C@H]1OC(=O)C[C@@]2(O)CC=C(C)[C@H](O2)/C(C)=C/CCC[C@@H](O[C@H]2C[C@@H](O)[C@H](O)[C@@H](C)O2)/C=C/[C@H](C)C[C@H]1C` [Venturicidin B], the T.vaginalis_%inb_Rep1 [1, 9] was 9.81%, the T.vaginalis_%inb_Rep2 [1, 11] was 16.33% and the NFF_Activity ([2]; NFF fibroblast screen at 5 µg/mL, A = active, I = inactive) was “I (otherwise these were reported as inactive (I))”.
For `O=c1cc2ccocc-2o1` [BIA-K1792], the T.vaginalis_%inb_Rep1 [1, 12] was 12.93%, the T.vaginalis_%inb_Rep2 [1, 13] was 13.15% and the NFF_Activity ([2]; NFF cells, screen at 5 µg/mL) was “I (otherwise these were reported as inactive (I))”.
`COc1cccc2oc3c4c(cc(OC)c3c(=O)c12)OC1OC=CC41` (stereo not shown) [BIA-M1214] was tested, and the T.vaginalis_%inb_Rep1 [1, 12] was 13.54%, the T.vaginalis_%inb_Rep2 [1, 13] was 12.19% and the NFF_Activity ([2]; NFF cells, screen at 5 µg/mL) was “I (otherwise these were reported as inactive (I))”.
Compound `C[C@@H](O)[C@@H]1NC(=O)[C@@H](N)C[C@@H](O)[C@@H](O)NC(=O)[C@@H]2[C@@H](O)[C@@H](C)CN2C(=O)[C@H]([C@H](O)CC(N)=O)NC(=O)[C@H]([C@H](O)[C@@H](O)c2ccc(O)c(OS(=O)(=O)O)c2)NC(=O)[C@@H]2C[C@@H](O)CN2C1=O` [FR 179642] (H-[Orn(4R-OH,5R-OH)]T[Hyp][hTyr(3S-OH,4S-OH,3'-OSO3H)][Gln(3R-OH)][Pro(3S-OH,4S-Me)]; lactam 1-C) has a T.vaginalis_%inb_Rep1 [1, 9] of 12.98%, a T.vaginalis_Absorbance_Rep1 [1, 10] of 0.95 and a T.vaginalis_%inb_Rep2 [1, 11] of 14.17%. For the same compound, the T.vaginalis_Absorbance_Rep2 [1, 10] was 0.816 and the NFF_Activity ([2]; NFF_NS1 screen at 5 µg/mL) was “I (otherwise these were reported as inactive (I))”.
For `CCCC[C@@H](C)[C@@H](OC(=O)C[C@@H](CC(=O)O)C(=O)O)[C@H](C[C@@H](C)CCCCCC[C@@H](O)C[C@H](O)[C@H](C)N)OC(=O)C[C@@H](CC(=O)O)C(=O)O` [Fumonisin B2], the T.vaginalis_%inb_Rep1 [1, 9] was 14.71%, the T.vaginalis_Absorbance_Rep1 [1, 10] was 0.992 and the T.vaginalis_%inb_Rep2 [1, 11] was 10.52%. For the same compound, the T.vaginalis_Absorbance_Rep2 [1, 10] was 0.799 and the NFF_Activity ([2]; NFF_NS1 screen at 5 µg/mL) was “I (otherwise these were reported as inactive (I))”.
For `COc1ccc([C@@H]2CC(=O)c3c(O)cc(O[C@@H]4O[C@H](CO[C@@H]5O[C@@H](C)[C@H](O)[C@@H](O)[C@H]5O)[C@@H](O)[C@H](O)[C@H]4O)cc3O2)cc1O` [BIA-H1766], the T.vaginalis_%inb_Rep1 [1, 12] was 15.42%, the T.vaginalis_%inb_Rep2 [1, 13] was 4.23% and the NFF_Activity ([2]; NFF cells, screen at 5 µg/mL) was “I (otherwise these were reported as inactive (I))”.
For `C[C@@H]1Cc2ccc(C(=O)N[C@@H](Cc3ccccc3)C(=O)O)c(O)c2C(=O)O1` [Ochratoxin B], the T.vaginalis_%inb_Rep1 [1, 6] was 13.18%, the T.vaginalis_%inb_Rep2 [1, 7] was 9.36% and the NFF_Activity [2, 8] was “I (otherwise these were reported as inactive (I))”.
`CC1=C[C@H](O/C=C2/C(=O)O[C@@H]3c4ccccc4C[C@H]23)OC1=O` [GR24] was tested, and the T.vaginalis_%inb_Rep1 [1, 9] was 14.00%, the T.vaginalis_Absorbance_Rep1 [1, 10] was 0.978 and the T.vaginalis_%inb_Rep2 [1, 11] was 4.49%. For the same compound, the T.vaginalis_Absorbance_Rep2 [1, 10] was 0.705 and the NFF_Activity ([2]; NFF_NS1 screen at 5 µg/mL) was “I (otherwise these were reported as inactive (I))”.
`CCC(=O)Nc1c2sscc-2n(C)c1=O` [BIA-A1120] was tested, and the T.vaginalis_%inb_Rep1 ([1]; HTS single concentration, parasite screen 1 µg/mL, replicate 1) was 100.00%, the T.vaginalis_%inb_Rep2 ([1]; HTS single concentration, parasite screen 1 µg/mL, replicate 2) was 82.07% and the NFF_Activity ([2]; NFF_NS1 screen 5 µg/mL, single concentration) was “A (active (A) compounds having >25% inhibitory activity)”.
With `C[C@@H]1C[C@H]2O[C@@H]2/C=C\C=C\C(=O)Cc2c(Cl)c(O)cc(O)c2C(=O)O1` [BIA-R1148] the T.vaginalis_%inb_Rep1 [1, 3] was 12.83%, the T.vaginalis_%inb_Rep2 [1, 4] was 10.33% and the NFF_Activity [2, 5] was “A (active (A) compounds having >25% inhibitory activity)”.
